Test results as given in ChEMBL document CHEMBL1131348, “Pyrazolo[1,5-a]pyrimidine CRF-1 receptor antagonists” (Bioorg Med Chem Lett, 1998).

What follows are molecules tested against T1, Corticotropin-releasing factor receptor 1 (Homo sapiens, UniProt P34998) (assay: Displacement of [125I]0-CRF from human Corticotropin releasing factor receptor 1 expressed in CHO cells).
T1 sequence (P34998 whole entry): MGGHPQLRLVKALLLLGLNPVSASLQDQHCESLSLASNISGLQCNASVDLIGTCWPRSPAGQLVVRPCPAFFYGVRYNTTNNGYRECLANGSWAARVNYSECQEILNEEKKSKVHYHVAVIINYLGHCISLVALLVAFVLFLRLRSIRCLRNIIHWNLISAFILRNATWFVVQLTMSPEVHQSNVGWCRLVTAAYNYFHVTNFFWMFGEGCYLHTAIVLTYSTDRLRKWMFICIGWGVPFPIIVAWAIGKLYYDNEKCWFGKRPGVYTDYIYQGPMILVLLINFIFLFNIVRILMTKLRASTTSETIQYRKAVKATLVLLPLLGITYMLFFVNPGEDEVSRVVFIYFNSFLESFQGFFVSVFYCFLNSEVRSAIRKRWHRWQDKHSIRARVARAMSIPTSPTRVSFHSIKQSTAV
Format: cell-based

Ki [µM] | Structure (SMILES)
0.216 | CCCCN(OC)c1cc(C)nc2c(-c3ccc(Cl)cc3Cl)c(C)nn12
0.069 | CCCCNc1cc(C)nc2c(-c3ccc(Cl)cc3Cl)c(C)nn12
0.011 | CCN(CCOC)c1cc(C)nc2c(-c3ccc(Cl)cc3Cl)c(C)nn12
0.005 | CCCCN(CC)c1cc(C)nc2c(-c3ccc(Cl)cc3Cl)c(C)nn12
0.0032 | CCCN(CC1CC1)c1cc(C)nc2c(-c3ccc(Cl)cc3Cl)c(C)nn12
0.0064 | CCCC1CCCCN1c1cc(C)nc2c(-c3ccc(Cl)cc3Cl)c(C)nn12 (centres undefined)
0.04 | CCCCN(CC)c1cc(C)nc2c(-c3ccc(Cl)cc3Cl)cnn12

The next lines start with the molecule.

Structure (SMILES) | Ki [µM]
CCCCN(CC)c1cc(C)nc2c(-c3ccccc3)c(C)nn12 | 0.511
Cc1cc(N2CCCCC2)n2nc(C)c(-c3ccc(Cl)cc3Cl)c2n1 | 0.041
CCCCN(CC)c1nc(C)nc2c1c(C)cn2-c1c(C)cc(C)cc1C [CP-154526] | 0.056
CCCCN(CC)c1cc(C)nc2c(-c3ccccc3Cl)c(C)nn12 | 0.015
CCCCN(CC)c1cc(C)nc2c(-c3ccc(Cl)cc3)c(C)nn12 | 0.077
Cc1cc(N2CCOCC2)n2nc(C)c(-c3ccc(Cl)cc3Cl)c2n1 | 0.31
CCCCN(CC)c1cc(C)nc2c(-c3c(Cl)cc(Cl)cc3Cl)c(C)nn12 | 0.093
